{
  "source": "paper PMC8761912",
  "about": "“Cryptosporidium parvum Pyruvate Kinase Inhibitors With in vivo Anti-cryptosporidial Efficacy” (Frontiers in Microbiology, 2022)",
  "key": {"C. parvum [1]": {"test_system": "C. parvum", "assay": "In vivo efficacy in C. parvum-infected IFN-γ KO mice, fecal oocysts load by qPCR", "set-up": "species or system Cryptosporidium parvum", "details": "paromomycin 1,000 mg/kg oral once daily from day 3 PI", "protocol": "(§1) Eight weeks old male interferon-gamma knockout (IFN-γ KO) mice (B6.129S7-Ifng^TM1Ts/J) were purchased from The Jackson Laboratory, United States, and allowed to quarantine and acclimatize for 1 week before the commencement of experiments. Before the start of the infection assays in mice, the tolerability of each inhibitor was determined by daily oral gavage with varying dosages (0–10 mg/kg mouse bodyweight) in groups of mice (n = 3 mice per group) for 8 days. During this period, mice were monitored daily for any changes in physical and mental activity, feeding, body weight, body temperature, fur condition, and body posture. […] Mice were divided into infected and uninfected groups (n = 3 mice per group) and each individual mouse was housed in a separate cage lined with sterile gauze bedding. Each mouse from the infected group was infected by oral gavage administration of 10^4 C. parvum AUCP-1 isolate oocysts suspended in 50 μl of PBS. Beginning day 3 PI, groups of mice were orally treated with CpPyK inhibitors (at the specified doses), sham (100 μl of 5% DMSO in PBS), or 1,000 mg/kg paromomycin (in sterile water) once daily for a total of 8 days. Fecal pellets were collected daily in individual sterile 15 ml tubes, and submerged in an equivalent volume of PBS containing a cocktail of penicillin (100 units/ml), streptomycin (100 μg/ml), chloramphenicol (34 μg/ml), and amphotericin (0.25 μg/ml), and stored at 4°C until use. Three independent replicate infection assays were performed. Mice were sacrificed at day 11 PI, and 5 cm of the distal small intestine just anterior to the cecum was resected and submerged in 10% neutral buffered formalin and submitted for histopathological processing in the Comparative Biosciences Histology Laboratory at the University of Illinois at Urbana-Champaign. Briefly, intestinal tissues preserved in 10% neutral buffered formalin were washed in 70% ethanol, embedded in paraffin, and sectioned transversely at a thickness of 5 μm. Sections were stained with hematoxylin and eosin. The slides were imaged using a Zeiss microscope fitted with a color camera.\nDNA was isolated from 250 mg of feces collected from individual mice using the QIAamp® PowerFecal® Pro DNA kit (Qiagen, United States) following the manufacturer’s protocol. Oocysts load per gram of feces was measured by quantitative real time PCR (qPCR) analysis of the Cp18s rRNA gene (GenBank accession number AF164102) using gene-specific primers: 5′-[…]-3′ (Forward) and 5′-[…]-3′ (Reverse), described previously ([Parr et al., 2007]). To generate a quantification standard curve, fecal samples were obtained from uninfected mice and spiked with 10^8 C. parvum oocysts per gram of feces, followed by isolation of DNA as described above. Ten-fold serial dilutions of the extracted DNA were made and used as quantification standards for qPCR. C. parvum oocysts load quantification for the test mice was performed using DNA samples from the infected feces. Each 20 μl qPCR reaction contained 10 μl of PowerUp™ SYBR™ Green Master Mix (Applied Biosystems, United States), 500 nM of each primer, and 2 μl of DNA template. After 2 min of initial denaturation at 95°C, 40 cycles of denaturation at 95°C for 15 sec and annealing/extension at 60°C for 1 min were performed in a 7500 Real-Time PCR System (Applied Biosystems, United States). The oocyst load per gram of feces was derived by the 7500-system software using the generated quantification standard curves (Supplementary Figure 1)."}, "C. parvum [2]": {"test_system": "C. parvum", "assay": "Histopathology of distal small intestine of C. parvum-infected IFN-γ KO mice", "format": "in vivo, Cryptosporidium parvum", "details": "1,000 mg/kg daily oral from day 3 PI, sacrificed day 11 PI", "protocol": "as §1"}, "C. parvum [3]": {"test_system": "C. parvum", "set-up": "method as in Li et al., 2019", "details": "reported value; ref Li et al., 2019; read-out: in vitro anti-Cryptosporidium EC50; cited from earlier work"}},
  "data": [
    {"compound": "NC[C@@H]1O[C@H](O[C@H]2[C@@H](O)[C@H](O[C@@H]3[C@@H](O)[C@H](N)C[C@H](N)[C@H]3O[C@H]3O[C@H](CO)[C@@H](O)[C@H](O)[C@H]3N)O[C@@H]2CO)[C@H](N)[C@@H](O)[C@@H]1O", "note": "[Paromomycin, reference compound]", "values": [
      {"measurement": "oocysts load by day 9 PI vs other treatments and untreated group", "setting": "C. parvum [1]", "value": "significantly (P < 0.05) lower oocysts loads"},
      {"measurement": "intestinal pathology (histology, distal small intestine)", "setting": "C. parvum [2]", "value": "notably reduced pathological changes"},
      {"measurement": "EC50", "setting": "C. parvum [3]", "value": 450, "unit": "µM"}
    ]}
  ]
}
